Data set [1] concerns the target T1, human androgen receptor (Homo sapiens, UniProt P10275).
T1 construct: expressed in transfected cells; host or cells: HeLa cells (clone 11A11B2), stably co-transfected with MMTV-Luc-Hyg reporter
T1 sequence (P10275 1-920): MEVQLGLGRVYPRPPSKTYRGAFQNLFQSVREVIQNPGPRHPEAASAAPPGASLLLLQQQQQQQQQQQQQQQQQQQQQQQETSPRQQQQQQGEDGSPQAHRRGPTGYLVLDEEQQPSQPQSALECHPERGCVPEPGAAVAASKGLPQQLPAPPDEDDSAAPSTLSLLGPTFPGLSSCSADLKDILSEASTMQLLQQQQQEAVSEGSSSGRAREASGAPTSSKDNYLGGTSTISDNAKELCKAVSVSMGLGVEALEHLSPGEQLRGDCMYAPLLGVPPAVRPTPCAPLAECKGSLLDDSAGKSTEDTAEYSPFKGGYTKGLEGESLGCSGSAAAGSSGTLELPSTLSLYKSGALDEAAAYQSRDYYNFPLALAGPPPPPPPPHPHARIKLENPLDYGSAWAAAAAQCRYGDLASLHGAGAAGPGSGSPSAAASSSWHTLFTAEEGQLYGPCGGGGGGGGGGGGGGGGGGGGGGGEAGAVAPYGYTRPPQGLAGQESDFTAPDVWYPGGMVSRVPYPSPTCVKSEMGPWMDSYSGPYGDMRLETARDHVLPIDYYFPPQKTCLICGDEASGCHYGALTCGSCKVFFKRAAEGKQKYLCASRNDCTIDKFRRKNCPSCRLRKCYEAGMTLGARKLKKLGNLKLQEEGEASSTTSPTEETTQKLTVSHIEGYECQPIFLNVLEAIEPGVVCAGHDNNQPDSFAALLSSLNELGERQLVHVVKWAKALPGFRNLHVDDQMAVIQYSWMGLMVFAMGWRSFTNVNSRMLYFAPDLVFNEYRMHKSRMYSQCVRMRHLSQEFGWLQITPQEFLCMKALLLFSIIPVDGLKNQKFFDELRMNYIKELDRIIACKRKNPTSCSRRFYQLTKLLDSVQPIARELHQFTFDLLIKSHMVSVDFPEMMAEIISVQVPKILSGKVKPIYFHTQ
In words: Test Example 2: antagonist effect, androgen receptor reporter gene assay in 11A11B2 cells with 0.1 nmol/L DHT. The data set is classed as cell-based. How it is done:
(§1) HeLa cells (purchased from Dai-Nippon Seiyaku K. K.) were cultured overnight in Dulbecco's Modified Eagle Medium containing no phenol red, but containing 3% charcoal-treated fetal bovine serum (hereafter referred to as DCC-FBS) (this medium is hereafter referred to as phenol-red-free DMEM). An MMTV-Luc-Hyg vector (reporter plasmid with […], containing an androgen response element and a hygromycin resistance gene: a vector obtained by substituting the chloramphenicol acetyl transferease gene of a GM-CAT vector (A.T.C.C No. 67282) purchased from the A.T.C.C. for the firefly luciferase gene, and inserting a hygromycin resistance gene), and pSG5-hAR-neo (human androgen receptor expression vector: a vector having an androgen receptor gene under the control of the SV40 promoter, and having a neomycin resistance gene inserted as a drug resistance gene) were transfected into the HeLa cells using an FuGENE™ 6 Transfection Reagent (obtained from Roche).
(§2) The clone cells thus obtained (11A11B2 cells) were maintained and propagated using DMEM containing 400 μg/mL neomycin, 200 μg/mL hygromycin and 10% FBS, and were propagated using phenol-red-free DMEM containing 10% DCC-FBS three to four days prior to the performance of an androgen receptor reporter gene assay.
The 11A11B2 cells were inoculated in a white clear-bottomed 96-well microplate (COSTAR) so that the cell concentration was 1.0×10^4/well, and were cultured overnight using phenol-red-free DMEM containing 3% DCC-FBS (hereafter referred to as the assay medium). The assay medium containing DHT was added so that the final concentration of DHT was 0.1 nmol/L, and samples of the assay medium containing the compounds of the examples or compounds of the comparative examples were added so that the final concentrations of the compounds of the examples or compounds of the comparative examples were 1, 10, 100, 1,000 and 10,000 nmol/L, respectively. After culturing for 48 hours, the transcription activity values were measured. The transcription activity was measured using a Bright-Glo™ Luciferase Assay System (Promega).
The transcription activity rates of the compounds of the examples were calculated from the transcription activity measured by the abovementioned method, with the transcription activity value obtained at 0.1 nmol/L DHT taken as 100%, and the transcription activity value in the case of the assay medium alone taken as 0%.
Accordingly, the value obtained by subtracting the transcription activity rate of Test Example 1 (Investigation of Agonist Activity) from the transcription activity rate of Test Example 2 (Investigation of Antagonist Activity) was used to calculate the compound concentration at which a transcription activity of 50% was shown (IC50 value). The IC50 value was calculated from a linear equation for two points on either side of 50%.

Data set [2] addresses T1, human androgen receptor. In words: Test Example 1: agonist effect, androgen receptor reporter gene assay in 11A11B2 cells. The data set is classed as cell-based. To be noted: compound concentration showing transcription activity of 5% (0.1 nmol/L DHT = 100%, assay medium alone = 0%), 48 hours. How it is done: as §1, §2
The 11A11B2 cells were inoculated in a white clear-bottomed 96-well microplate (COSTAR) so that the cell concentration was 1.0×10^4/well, and were cultured overnight using phenol-red-free DMEM containing 3% DCC-FBS (hereafter referred to as the assay medium). Samples of the assay medium containing the compounds of the examples and compounds of the comparative examples were added so that the final concentrations of the compounds of the examples and compounds of the comparative examples were 1, 10, 100, 1,000 and 10,000 nmol/L (however, in the case of the compounds of Examples 1 and 2, the compounds were added so that the final concentrations were 1, 10, 100, 1,000, 10,000 and 100,000 nmol/L), and the cells were cultured for 48 hours, after which the transcription activity value was measured. The transcription activity was measured using a Bright-Glo™ Luciferase Assay System (Promega).
The transcription activity rates of the compounds of the examples were calculated from the transcription activity measured by the abovementioned method, with the transcription activity value obtained at 0.1 nmol/L DHT taken as 100%, and the transcription activity value in the case of the assay medium alone taken as 0%. The compound concentration showing a transcription activity of 5% (EC5 value) was calculated from a linear equation for two points on either side of 5%.

The conditions of data set [3]: reports; cited from earlier work.
Data set [4] concerns the target androgen receptor (Homo sapiens, UniProt P10275). To be noted: at a concentration of 10 μmol/L; cited from earlier work.
The conditions of data set [5]: prostate cancer patients treated with flutamide; cited from earlier work.
The test system of data set [6] is castrated rats. As to conditions: continuously administered to castrated rats for two weeks; cited from earlier work.
Where [7] appears, read: concentration giving 50% transcription activity after subtracting the Test Example 1 agonist rate, 0.1 nmol/L DHT, 11A11B2 cells, 48 hours, read-out: IC50.

The text below walks through data of patent publication US7271188B2, “Imidazolidine derivatives” (Chugai Seikayu Kabushiki Kaisha, priority 2003, dated 2007).

Like-named read-outs stand apart in the source and are kept apart here.

What is called IC50 is the concentration that gives 50% inhibition. Compound `CN1C(=S)N(c2ccc(C#N)c(C(F)(F)F)c2)C(=O)C1(C)C` [Comparative Example 1, 4-(5-oxo-2-thioxo-3,4,4-trimethyl-1-imidazolidinyl)-2-trifluoromethylbenzonitrile, reference compound] showed a half-maximal inhibitory concentration (IC50) in data set [1] of 1 nM. Further, in data set [2], the EC5 worked out at 0.08 nM.
On to `CC(=O)NCCN1C(=S)N(c2ccc(C#N)c(C(F)(F)F)c2)C(=O)C1(C)C` [Comparative Example 2, 4-[3′-(2″-N-acetylaminoethyl)-4′,4′-dimethyl-5′-oxo-2′-thioxo-1′-imidazolidinyl]-2-trifluoromethylbenzonitrile, reference compound], for which the IC50 in data set [1] (setting [7]) amounted to 800 nM. In data set [2], the EC5 came to 3000 nM.
Turning to `CC(O)(CS(=O)(=O)c1ccc(F)cc1)C(=O)Nc1ccc(C#N)c(C(F)(F)F)c1` (stereo not drawn) [Comparative Example 3, bicalutamide], the side effects result in data set [3] is recorded as “liver toxicity”.
In the case of `CC(C)(O)C(=O)Nc1ccc([N+](=O)[O-])c(C(F)(F)F)c1` [Comparative Example 4, hydroxyflutamide], in data set [4], the “androgen receptor transcription activity” value is “increase in androgen receptor transcription activity”. Also, the “concentration in the blood” value in data set [5] is “several”. This compound also displayed an EC5 in data set [2] of 10 nM.
`CC1(C)C(=O)N(c2ccc(C#N)c(C(F)(F)F)c2)C(=S)N1CCCS(N)(=O)=O` [Example 1, 4-[3′-(3″-aminosulfonylpropyl)-4′,4′-dimethyl-5′-oxo-2′-thioxo-1′-imidazolidinyl]-2-trifluoromethylbenzonitrile] registered an IC50 in data set [1] of 200 nM. In addition, in data set [2], the EC5 is on record as 20000 nM.
Turning to `CC1(C)C(=O)N(c2ccc(C#N)c(C(F)(F)F)c2)C(=S)N1CCCCS(N)(=O)=O` [Example 2, 4-[3′-(4″-aminosulfonylbutyl)-4′,4′-dimethyl-5′-oxo-2′-thioxo-1′-imidazolidinyl]-2-trifluoromethylbenzonitrile], in data set [1] (setting [7]), the IC50 stood at 600 nM. This compound had an EC5 in data set [2] of more than 100000 nM.
The corresponding values for `CC1(C)C(=O)N(c2ccc(C#N)c(C(F)(F)F)c2)C(=S)N1CCCCCCS(N)(=O)=O` [Example 3, 4-[3′-(6″-aminosulfonylhexyl)-4′,4′-dimethyl-5′-oxo-2′-thioxo-1′-imidazolidinyl]-2-trifluoromethylbenzonitrile] are 200 nM and 3000 nM.
Taken in the same sequence, the figures for `CC1(C)C(=O)N(c2ccc(C#N)c(C(F)(F)F)c2)C(=S)N1CCCCCS(N)(=O)=O` [Example 7, 4-[3′-(5″-aminosulfonylpentyl)-4′,4′-dimethyl-5′-oxo-2′-thioxo-1′-imidazolidinyl]-2-trifluoromethylbenzonitrile] were 900 nM and more than 10000 nM.
Compound `CN(C)S(=O)(=O)CCCCN1C(=S)N(c2ccc(C#N)c(C(F)(F)F)c2)C(=O)C1(C)C` [Example 8, 4-[3′-(4″-N,N-dimethylaminosulfonylbutyl)-4′,4′-dimethyl-5′-oxo-2′-thioxo-1′-imidazolidinyl]-2-trifluoromethylbenzonitrile] returned an IC50 in data set [1] of 100 nM. The same compound yielded an EC5 in data set [2] of 2000 nM.
With `CN(C)S(=O)(=O)CCCCCN1C(=S)N(c2ccc(C#N)c(C(F)(F)F)c2)C(=O)C1(C)C` [Example 10, 4-[3′-(5″-N,N-dimethylaminosulfonylpentyl)-4′,4′-dimethyl-5′-oxo-2′-thioxo-1′-imidazolidinyl]-2-trifluoromethylbenzonitrile], in data set [1] (setting [7]), the IC50 is 200 nM. Besides, the EC5 in data set [2] is given as 2000 nM.
Taken in the same sequence, the figures for `CNS(=O)(=O)CCCCN1C(=S)N(c2ccc(C#N)c(C(F)(F)F)c2)C(=O)C1(C)C` [Example 16, 4-[3′-(4″-N-methylaminosulfonylbutyl)-4′,4′-dimethyl-5′-oxo-2′-thioxo-1′-imidazolidinyl]-2-trifluoromethylbenzonitrile] were 700 nM and more than 10000 nM.
The compound `CC1(C)C(=O)N(c2ccc(C#N)c(C(F)(F)F)c2)C(=S)N1CCS(N)(=O)=O` [Example 18, 4-[3′-(2″-aminosulfonylethyl)-4′,4′-dimethyl-5′-oxo-2′-thioxo-1′-imidazolidinyl]-2-trifluoromethylbenzonitrile] gave an IC50 in data set [1] of 600 nM. The compound further yielded an EC5 in data set [2] of 7000 nM.
As to `CC(=O)O[C@]1(C(C)=O)CC[C@H]2[C@@H]3C=C(Cl)C4=CC(=O)CC[C@]4(C)[C@H]3CC[C@@]21C` [chlormadinone acetate], the “weight of the prostate gland” value in data set [6] is given as “increase in the weight of the prostate gland”.
On to `CC(=O)O[C@]1(C(C)=O)CC[C@H]2[C@@H]3C=C(Cl)C4=CC(=O)[C@@H]5C[C@@H]5[C@]4(C)[C@H]3CC[C@@]21C` [cyproterone acetate], for which the “weight of the prostate gland” value in data set [6] is “increase in the weight of the prostate gland”.
Take `CC(C)C(=O)Nc1ccc([N+](=O)[O-])c(C(F)(F)F)c1` [flutamide]: in data set [3], the side effects entry is “liver toxicity”.
